Test results from the METLIN SMRT retention time set (Domingo-Almenara et al. 2019).

Assay: gradient 5% acetonitrile 3 min, to 50% in 2 min, to 85% in 15 min, held 3 min, 100 µL/min
Settings: column: Zorbax Extend-C18 2.1 x 50 mm; eluents: water / acetonitrile, 0.1% formic acid
Method in brief: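 Over 3 months, pure standards in mixtures of ~100 molecules were run by HPLC coupled to a quadrupole time-of-flight mass spectrometer in positive and negative ionization mode. The column was a Zorbax Extend-C18 (2.1 × 50 mm, 1.8 μm) at 100 μL/min, eluted with water and acetonitrile each holding 0.1% formic acid, with 40 μL dead and 900 μL dwell volumes. Retention time was determined from adduct peaks chosen by software and checked manually.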

Row | RP-LC retention time | Compound
1 | 785 s | O=C(NCc1cc(-c2ccc3c(c2)OCO3)on1)c1c(F)cccc1Cl
2 | 986 s | Cc1ccc(NS(=O)(=O)c2cn(CC(C)C)c3ncccc23)c(F)c1
3 | 802 s | CC1=C(c2ccccc2)S(=O)(=O)N=C1N1CCCN(C(=O)c2ccccc2F)CC1
4 | 806 s | Cc1cccc(NC(=O)N2CCC3(CC2)N=C(c2ccccc2)C(=O)N3)c1
5 | 834 s | O=C1CCCc2c1cc(C(=O)NCCc1ccco1)c(=O)n2-c1ccc(F)cc1
6 | 1190 s | CCN1C(=O)c2ccccc2Oc2ccc(C(=O)N3CCN(c4cc(C)ccc4C)CC3)cc21
7 | 1030 s | Cc1[nH]c(C(=O)N2CCC(CC(=O)NCc3ccccc3F)CC2)c(C)c1C(=O)OC(C)C
8 | 719 s | O=C(c1ccoc1)N1CCC(OCc2nc(C3CC3)no2)CC1
9 | 731 s | CCc1ccccc1NC(=O)N1CC(c2nc(C)no2)C2(CCOCC2)C1 (centres undefined)
10 | 611 s | O=C(CNC(=O)c1ccc2c(c1)OCO2)Nc1nc2ccccc2[nH]1
11 | 970 s | COc1ccc(C2CC(=O)N(c3cccc(Br)c3)C(=O)C2)cc1
12 | 798 s | COc1ccccc1-c1nnc(-c2ccc(OC)c(S(=O)(=O)N(C)C)c2)o1
13 | 590 s | Cc1nn(-c2ccccc2)c(C)c1CCC(=O)NCCN(C)C
14 | 683 s | O=C(Nc1ccc(OCC(F)(F)C(F)F)cc1)c1ccncc1
15 | 914 s | Cc1ccc(-n2nc(N3CCCN(S(=O)(=O)c4ccccc4F)CC3)ccc2=O)cc1C
16 | 892 s | Cc1ccc(C(=O)NC2CCCCCC2)cc1NC(=O)C1=CSCCO1
17 | 757 s | Cc1ccccc1NC(=O)C1CCN(c2nc(C3CCC3)nc3csc(C)c23)CC1
18 | 675 s | CC(C)(C)NC(=O)N1CCC(c2nc(CCNC(=O)C3CC3)cs2)CC1
19 | 788 s | CCS(=O)(=O)NCc1cccnc1Oc1ccccc1
20 | 840 s | O=C(Cc1c(F)cccc1Cl)N1CCN(c2cc(-c3cccs3)[nH]n2)CC1
21 | 729 s | CCCC(=O)N1CCC(c2nc(CCOCC3CC3)no2)C1 (centres undefined)
22 | 1080 s | CC(C)(C)c1ccc(S(=O)(=O)N2CCCC(CNC(=O)c3ccccc3)C2)cc1 (centres undefined)

Row | RP-LC retention time | Compound
23 | 633 s | Cc1cnc(C(=O)N[C@@H]2CCC[C@@H]2C(=O)N2CCSCC2)cn1
24 | 622 s | COc1ccc(CC(=O)NCc2c(C)nc3sc(C)nn23)c(Cl)c1
25 | 643 s | CC(NC(=O)c1cccc2c1CCN2C(=O)Nc1ccccc1)c1cccnc1 (centres undefined)
26 | 906 s | COc1ccccc1CNC(=O)c1nnc(-c2ccc(S(=O)(=O)N3CCCC3)cc2)o1
27 | 642 s | O=C(NCC(F)(F)F)C1CCN(Cc2noc(-c3ccc(F)cc3)n2)CC1
28 | 944 s | CCn1c(C(=O)N2CCOCC2)cc2c(-c3cccs3)nn(-c3ccccc3)c21
29 | 965 s | CCc1ccc(CNC(=O)CN2CCc3ccccc3C2C(=O)N2CCCCC2)cc1 (centres undefined)
30 | 972 s | COc1ccc(C(=O)N2CCc3cc(-c4csc(C)n4)ccc32)cc1
31 | 746 s | O=C(CN1C(=O)S/C(=C\c2ccccc2)C1=O)NCCN1C(=O)CSC1=O
32 | 1140 s | CCc1ccc(NC(=O)c2cc(CC)n3nccc3n2)cc1
33 | 670 s | COCCN1C(=O)c2ccccc2C(C(=O)NCCCN2CC(C)CC(C)C2)C1c1cccs1 (centres undefined)
34 | 932 s | CCN1C(=O)c2cccnc2Sc2cc(NC(=O)c3ccc(Cl)s3)ccc21
35 | 879 s | O=C(C1CCCO1)N1CCC(CCOc2ccccc2F)CC1 (centres undefined)
36 | 685 s | Cn1nc(C(=O)N2CCCC2)c2c1CCN(C(=O)CCC(=O)NCCc1c[nH]c3ccccc13)C2
37 | 1020 s | O=C(Nc1c(Cl)cncc1Cl)c1ccc(OC(F)F)c(OCC2CC2)c1
38 | 706 s | COc1ccc(C2C(C(=O)N3CCCCC3)c3cc(OC)c(OC)cc3C(=O)N2C)cc1OC (centres undefined)
39 | 595 s | NCCC1CCN(C(=O)Nc2cccc(F)c2)CC1
40 | 893 s | COc1ccc(-c2cc3n(n2)CCCN(C(=O)c2cc4ccccc4[nH]2)C3)cc1
41 | 566 s | CC(=O)Nc1ccc(-n2cnc(C(=O)N3CCN(C4CCCCC4)CC3)c2)nc1
42 | 635 s | CCn1c(N2CCCC(C(=O)NCC3CCN(Cc4cccc(F)c4)CC3)C2)cc(=O)n(C)c1=O (centres undefined)
43 | 721 s | O=C(CN1CCN(C(=O)Nc2ccccc2)CC1=O)NC1CCCCCC1
44 | 1120 s | Cc1ccccc1-n1c(=O)c2sccc2n(Cc2nc(-c3ccc(OC(C)C)cc3)no2)c1=O

Row | RP-LC retention time | Compound
45 | 1030 s | CCN1C(=O)C2(CCN(S(=O)(=O)Cc3ccccc3Cl)CC2)c2ccccc21
46 | 937 s | Cc1cccc(-c2csc3c(=O)n(Cc4ccc(N5CCCC5=O)cc4)cnc23)c1
47 | 892 s | COCCCN(CC(=O)N1CCc2sccc2C1COc1ccccc1)C(=O)C(C)C (centres undefined)
48 | 715 s | CC(C)(C)c1noc(-c2ccnc(-n3cnc(C(=O)NCc4ccccc4)c3)c2)n1
49 | 640 s | Cc1ccc2c(=O)c3c([nH]c2c1C)CCN(CC(=O)Nc1cccc(Cl)c1)C3
50 | 840 s | O=C(NC1CC1)c1cccn1Cc1noc(-c2ccccc2)n1
51 | 854 s | CCCC(=O)Nc1ccc(OCc2cc(C(=O)NC3CCCC3)no2)cc1
52 | 602 s | Cc1nncn1C1CN(C(=O)c2ccc(N(C)C)cc2)C1
53 | 624 s | CCC(C(=O)NCCCN1CCN(CC)CC1)n1nc(C)c2sc3ccccc3c2c1=O (centres undefined)
54 | 796 s | O=C(NC1CCN(c2cc(-c3cccs3)[nH]n2)C1)c1cccc(Br)c1 (centres undefined)
55 | 1000 s | COC(=O)c1ccc(Cl)cc1NC(=O)N1CCC2(CC1)NC(=O)c1ccccc1O2
56 | 936 s | O=C(Nc1nc(-c2cccs2)cs1)c1cccc([N+](=O)[O-])c1
57 | 582 s | Fc1ccc(-c2ccc(CNCC3CCNCC3)o2)cc1Cl
58 | 730 s | CCc1nn(CC(=O)N2CCN(c3ncccn3)CC2)c(=O)c2cc3sccc3n12
59 | 852 s | Cc1ccc(NC(=O)C2Oc3ccccc3NC2=O)c(Br)c1 (centres undefined)
60 | 898 s | COc1ccc(NC(=O)C(C)C2CCN(C(=O)Nc3ccc(Cl)cc3)CC2)c(OC)c1 (centres undefined)
61 | 973 s | CCOc1cccc(-c2noc(Cn3ccn(Cc4ccc(Cl)cc4)c(=O)c3=O)n2)c1
62 | 1130 s | COc1ccccc1-c1noc(Cn2ncn3nc(-c4ccc(C)cc4C)cc3c2=O)n1
63 | 1080 s | O=C(NCc1ccco1)c1csc(N2CCN(c3cccc(Cl)c3)CC2)n1
64 | 832 s | Cc1cc2c(=O)n(CC(=O)Nc3cccc(Cl)c3)ccc2s1
65 | 749 s | COc1ccc(CNC(=O)c2cn3cc(Cl)ccc3n2)cc1OC
66 | 741 s | CCn1cc(CN2CCC(C(=O)NC3CCCCCC3)CC2)c2cc(OC)ccc21

Row | RP-LC retention time | Compound
67 | 869 s | O=C1NC2(CCN(C(=O)c3ccccc3)CC2)N=C1c1cccc(Cl)c1
68 | 733 s | CC1=C(c2ccccc2)C=NNCC1=O
69 | 1110 s | O=C(Cn1nc2c(SC3CCCCC3)nccn2c1=O)N1CCN(c2ccccc2)CC1
70 | 769 s | O=C(CSc1nnc(-c2csc3c2CCCC3)o1)Nc1ccccc1
71 | 695 s | CCc1ccc(S(=O)(=O)Nc2cc(-c3cn4ccccc4n3)ccc2C)cc1
72 | 646 s | COCCC1CCOC2(CCN(C(=O)C3CCN(C(C)=O)CC3)CC2)C1 (centres undefined)
73 | 712 s | CCn1ccc(C(=O)Nc2nnc(CSc3ccccc3)o2)n1
74 | 883 s | Cc1cccc(NC(=O)C2CCCN(S(=O)(=O)c3c[nH]c(C(=O)N4CCCCCC4)c3)C2)c1C (centres undefined)
75 | 705 s | COCCCNC(=O)Cn1c(=O)c(S(=O)(=O)c2ccccc2)cc2ccccc21
76 | 1030 s | CC(=O)Nc1cc(C(=O)NC(C)c2ccccc2)c2ccc(C)nc2c1 (centres undefined)
77 | 815 s | CCNC(=O)N(CCOC)CC(=O)N1CCc2sccc2C1COc1ccccc1 (centres undefined)
78 | 670 s | Cn1c(C2CCN(C(=O)Nc3ccc(Cl)cc3F)CC2)cc(=O)n2nccc12
79 | 654 s | Cc1noc(C2CN(C(=O)Nc3c(F)cccc3F)CC23CCOCC3)n1 (centres undefined)
80 | 728 s | CN(C)c1cccc(C(=O)NCC(=O)N2CCCc3ccccc32)c1
81 | 684 s | O=c1oc2cc(O)c(O)cc2c2c1CCCC2
82 | 738 s | Cc1ccc(N2CC(c3nc(-c4ccc5c(c4)ncn5CCC(=O)N4CCCC4)no3)CC2=O)cc1C (centres undefined)
83 | 720 s | CS(=O)(=O)N1CCC(OC2CCN(C(=O)Nc3ccc(F)cc3F)CC2)CC1
84 | 1180 s | COc1ccc2c(c1)CCc1sc(NC(=O)c3cccc(Cl)c3)nc1-2
85 | 775 s | CCS(=O)(=O)N1CCc2c(c(CN(C(=O)c3ccccc3)c3ccccc3)nn2C)C1
86 | 865 s | CN(C)c1ccc(C(=O)N2CCN(c3cc(-c4ccc(Cl)cc4)[nH]n3)CC2)cc1
87 | 968 s | CC1(C)C(=O)N(CC(=O)Nc2cccc(Br)c2)c2ccccc21
88 | 745 s | Cc1cccc(CNC(=O)C2CCCN(c3nnc(C)c4c(C)n(-c5ccccc5)nc34)C2)c1 (centres undefined)

Row | Compound | RP-LC retention time
89 | O=C(C1CCCC1)N1[C@H]2CC[C@@H]1c1cnc(-c3ccc(F)cc3)nc1C2 | 984 s
